Laboratory results as given in patent US11357749B2, “Methods for treating neutropenia” (Enzychem Lifesciences Corporation, priority 2014, dated 2022).

Experiments:
[1] = stated as known; cited from earlier work
C3 = C3 in culture supernatant of HepG2 cells by ELISA; format: cell-based, human; details: HepG2, PLAG 1 to 100 μg/ml, IL-4 and TNF-α, 18 hr
Experimental: The incubated HepG2 cell lines are treated with PLAG (1˜100 μg/ml), followed by IL-4 and TNF-α, reacted for 1 hour, incubated for 18 hours at 37° C. and the supernatant isolated. Quantitation of the amount of C3 in the cellular culture medium (supernatant) from HepG2 cells is performed by ELISA using a commercially available monoclonal antibody (mAb, R&D Systems) and the manufacture's protocol; the results are presented in FIG. 3. C3 is expressed spontaneously under in vitro culture condition using 10% FCS added to HepG2 cells incubated for 12 hr. The cells are treated with different doses of PLAG from 1 to 100 μg/ml (Panel A, Panel B) or 10 and 100 μg/ml of S6I (Panel C), reacted with IL-4 and TNF-α for 1 hr and then incubated for 18 hr at 37° C. Cellular viability is confirmed using the WST-1 assay (Panel A).

ERK1/2 = ERK1/2 phosphorylation, western blot in IgE-antigen stimulated RBL-2H3 cells; format: cell-based; details: PLAG pre-incubated RBL-2H3 cells, IgE-antigen complex stimulation
Experimental: Dephosphorylation of p38 MAPK and ERK1/2 in PLAG-treated RBL-2H3 cells is determined by western blot analysis using anti-phospho-p38 and anti-phospho-ERK1/2 respectively. To activate the p38 and ERK1/2 in RBL-2H3 cells, the cells are sensitized with 50 ng/mL of anti-DNP-IgE overnight. After washing with PBS three times, 20 ng/ml of DNP-HSA is added. Each cell lysate for western blot is prepared in the PLAG-treated RBL-2H3 cells in a dose-dependent manner and incubated for the same time (15 min). β-actin is used as internal controls. ERK1/2 and p38 phosphorylation start immediately after IgE-antigen complex stimulation and remain sufficiently activated for 5 min.

platelets [2] = experiment: Pilot study in pancreatic cancer patients receiving chemotherapy: platelets; format: in vivo, human; details: 16 patients, Gemcitabine and Erlotinib, PLAG 1,000 mg once per day orally, two cycles
Experimental: (§1) PLAG is administered to sixteen pancreatic cancer patients after chemotherapy. The subjects of this study are unoperable pancreatic cancer patients with ECOG (Eastern Cooperative Oncology Group) performance status of “0” or “1”, i.e. patients in good physical condition without much pain, able to enjoy almost normal lifestyle and thus, eligible for anticancer treatment for at least 2 months. The pancreatic cancer patients are “locally advanced” patients having tumor metastasis to the major vessels around pancreas or “Distant metastasis” patients with distant metastasis to liver, lung, bone, etc. ECOG performance status “0” refers to a patient who is asymptomatic, fully active, able to carry on all predisease activities without restriction with no pain and no problem for normal lifestyle, while “1” refers to a patient who is symptomatic but completely ambulatory with mile pain and a little problem for normal life. Anticancer (Gemcitabine and Erlotinib combo treatment) Regimen is as follows: 1,000 mg of Gemcitabine is injected once a week for three weeks (Day 1, Day 8, Day 15), and is not injected in the next one week (Day 22). Therefore, 1 cycle of anticancer treatment requires 1 month. 100 mg of Erlotinib (Tarceva) is administered once per day everyday orally. 1,000 mg of PLAG is also administered once per day orally, starting from 3 days before anticancer treatment until the last chemotherapy treatment. The PLAG treatment group and control group both completed two cycles of anticancer treatment. There is no difference among the control and PALG treatment groups in the amount or schedule of anticancer treatment.

platelets [3] = experiment: Lipopolysaccharide-induced platelet reduction in mice; format: in vivo; details: 15 hours
Experimental: Mice are injected with 100 mg/kg phenylhydrazine (PHZ), i.p., to induce anemia and reduction of platelets. 5 mg/kg PLAG is administered to the mice orally and blood samples are taken at 3 and 13 days after. In addition, for comparison, normal mice which are not treated with phenylhydrazine are prepared as a normal group, and mice treated with PHZ and olive oil instead of PLAG are prepared as a control group. The blood samples taken from the mice are treated with 0.5 ml EDTA (Minicollect tube, Greiner bio-one, Austria) and concentration of platelet is measured using automated blood sample analyzer BC-6800 (Mindray, Shenzhen, China) by number of platelet per […] (k: 1,000).
The experiment is repeated using Tamoxifen (Tam), an anticancer agent, injected at the amount of 100 mg/kg, or lipopolysaccharide (LPS), an inflammation inducer, at the amount of 1 mg/kg to induce platelet reduction. Platelet concentration is measured 15 hours after PLAG treatment. For comparison, olive oil and PBS are used instead of PLAG as controls, respectively for the Tamoxifen and lipopolysaccharide experiment.

STAT1 = experiment: IFN-γ induced STAT1 phosphorylation, western blot in U937 cells; format: cell-based; details: PLAG 0.01 to 10 μg/ml, 10 ng IFN-γ, 15 min
Experimental: Dephosphorylation of STAT6 is examined using anti-phosphorylated STAT6 in U937, A549, and Jurkat cell lysates treated with PLAG concentration from 0.01 to 10 μg/ml. Phosphorylation of STAT6 is induced by treatment with 10 ng/ml of IL-4. Dephosphorylation of STAT1 is examined in the U937 cell lysate treated with PLAG (0.01 to 10 μg/ml). Phosphorylation of STAT1 is induced by 10 ng of IFN-γ treatment. Dephosphorylation of STAT1 and STAT6 is examined at 15 min after stimulation with IFN-γ and IL-4 respectively, in the PLAG pretreated cells. […] The transcriptional activity of STAT6 is decreased by the dephosphorylation of STAT6. […] No effect of PLAG on STAT1 phosphorylation is observed.

neutrophils = experiment: Pilot study in pancreatic cancer patients receiving chemotherapy: neutrophils (ANC); format: in vivo, human; details: 16 patients, Gemcitabine and Erlotinib, PLAG 1,000 mg once per day orally, two cycles
Experimental: as §1

Structure (SMILES): CCCCC/C=C\C/C=C\CCCCCCCC(=O)OC(COC(C)=O)COC(=O)CCCCCCCCCCCCCCC (racemic) [PLAG, 1-palmitoyl-2-linoleoyl-3-acetylglycerol]
- toxicity in GLP toxicity test [1]: no toxicity
- expression of C3 in supernatant (ELISA) (C3): decreased dose-dependently
- ERK1/2 phosphorylation (ERK1/2): down-regulated
- patients whose platelet number dropped to less than 25,000 (platelets [2]): no patient
- patients with >50% decrease in platelet count (platelets [2]): 43.8%
- patients with >60% decrease in platelet count (platelets [2]): 25%
- patients with >70% decrease in platelet count (platelets [2]): none
- patients with anticancer treatment postponed or dose adjusted due to platelet number decrease to less than 50,000 (platelets [2]): no patient
- Platelet Conc. (platelets [3]; LPS 1 mg/kg + PLAG 1 mg/kg): 450.00 k/ul
- Platelet Conc. (platelets [3]; LPS 1 mg/kg + PLAG 2 mg/kg): 553.33 k/ul
- STAT1 phosphorylation (STAT1): No effect
- patients with neutrophil (ANC) decrease to less than 1,500/μl (neutrophils): 37.5%
- patients with neutrophil decrease to less than 500/μl (neutrophils): none
- patients with neutrophil decrease to less than 1,000/μl (neutrophils): 18.8%
- patients with neutrophil number decrease to less than 50% (neutrophils): 37.5%
- patients with neutrophil number decrease to less than 60% (neutrophils): 18.8%
- patients with neutrophil number decrease to less than 75% (neutrophils): none
